Laboratory results taken from patent US7517889B2, “2,6-substituted-4-monosubstitutedamino-pyrimidine as prostaglandin D2 receptor antagonists” (Aventis Pharmaceuticals, Inc., priority 2004, dated 2009).
Counter-ions that a name gives are not always drawn.

What follows are molecules tested against T1, DP receptor (Homo sapiens, UniProt Q13258) (assay: SPA cAMP assay in human LS174 T cells (human DP functional assay)). Conditions: inhibition of PGD2 (15 nM final) stimulated cAMP, LS174T cells expressing endogenous DP receptor.
T1 construct: the human cell line LS174T, which expresses the endogenous DP receptor; endogenous in cells; host or cells: LS174T human cell line
T1 sequence (Q13258 1-359): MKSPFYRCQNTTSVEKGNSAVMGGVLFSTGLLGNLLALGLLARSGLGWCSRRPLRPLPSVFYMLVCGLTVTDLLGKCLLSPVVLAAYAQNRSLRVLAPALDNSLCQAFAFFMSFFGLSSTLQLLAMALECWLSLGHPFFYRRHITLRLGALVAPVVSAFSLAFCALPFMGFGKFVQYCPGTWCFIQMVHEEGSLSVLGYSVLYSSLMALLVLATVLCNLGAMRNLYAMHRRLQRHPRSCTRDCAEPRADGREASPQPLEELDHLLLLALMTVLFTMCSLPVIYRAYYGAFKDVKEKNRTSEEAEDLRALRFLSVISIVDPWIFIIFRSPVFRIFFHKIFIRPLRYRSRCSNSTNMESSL
Assay type: cell-based
Protocol: The inhibitory effects of the compounds according to the invention are assessed in a human DP functional assay. A cAMP assay is employed using the human cell line LS174T, which expresses the endogenous DP receptor.
Protocol for SPA cAMP Assay in Human LS174 T Cells
• 1) Add equal volumes of tracer, antiserum and SPA anti-rabbit reagent to a bottle, ensuring that a sufficient volume of this mixture is prepared for the desired number of wells (150 μL/well). • 2) Mix thoroughly. • 3) This immunoreagent solution should be freshly prepared before each assay and not re-used.
Add 50 μL of […] IBMX into 100 mL PBS to make a final concentration of 100 μM and sonicate at 30° C. for 20 minutes.
Before each assay, it is freshly prepared. Add 3 μL of 10 mM stock solution to 20 mL DMSO, mix it thoroughly, and transfer 10 mL to 40 mL PBS.
Compound dilution is carried out in Biomex 2000 (Beckman) using Method 1_cAMP DP 11 points.
5 μL of each compound from the 10 mM stock compound plates is transferred to the wells of a 96-well plate respectively as below.
Fill the plate with 45 μL of DMSO except column 7 is filled with 28 μL DMSO. Pipette column 1 thoroughly, and transfer 12 μL into column 7 parallel. Perform 1:10 serial dilution from column 1 to column 6 and from column 7 to column 11 by transfer 5 μL to 45 μL DMSO to make following concentrations:
Fill a new 96-well plate with 247.5 μL of compound dilution buffer. Transfer 2.5 μL of serially diluted compounds from above plate to the new plate (1:100 dilution) as following:
Cell Growth • 1. […] Remove growth medium from cells. Cells in T165 flask are washed twice with 4 mL Trypsin followed by incubation at 37° C. and 5% CO2 for 3 minutes. • 4. Add 10 mL of medium and pipette thoroughly to separate the cells and count the cells. • 5. […] Assay Procedure Day 1 • Seed 45,000 cells/well in 200 μL medium in 96-well plates. Incubate the cell plate at 37° C., 5% CO2 and 95% humidity overnight. Day 2 • 1. Perform compound dilution. • 2. Prepare assay buffer, lysis buffer 1 & 2, PGD2 and standard. • 3. Aspirate media from the cells and add 100 μL of compound solution using Zymark Sciclone-ALH/FD protocol cAMP DP. • 4. Incubate the cells at 37° C., 5% CO2 and 95% humidity for 15 minutes. • 5. […] Aspirate media from the cells and add 50 μL of lysis buffer 1 using Zymark protocol cAMP DP lysis, and incubate at room temperature with shaking for 30 minutes. • 7. Add 150 μL immunoreagent to all wells (a total volume of 200 μL/well). • 8. Seal the plates and shake for 2 minutes, put into the chamber of the Wallac microtitre plate μ scintillation counter for 16 hours. […] Data Processing Set up standard curve of cAMP versus CPM.
The cAMP concentrations (pmol/mL) of unknown samples are calculated from a standard curve of cAMP versus CPM. % inhibition is calculated using the following formula: […]

Structure (SMILES)	IC50 [nM]
COc1ccc(CCNc2cc(-c3ccc(F)c(C(=O)O)c3)nc(OC)n2)cc1 [Example 20(a), 2-Fluoro-5-{2-methoxy-6-[2-(4-methoxy-phenyl)-ethylamino]-pyrimidin-4-yl}-benzoic acid]	0.4
COc1ccc(CCNc2cc(-c3ccc(C)s3)nc(OC)n2)cc1 [Example 8(e), [2-Methoxy-6-(5-methyl-thiophen-2-yl)-pyrimidin-4-yl]-[2-(4-methoxy-phenyl)-ethyl]-amine]	8.2
COc1ccc(CCNc2cc(-c3cnco3)nc(OC)n2)cc1 [Example 45, (2-Methoxy-6-oxazol-5-yl-pyrimidin-4-yl)-[2-(4-methoxy-phenyl)-ethyl]-amine]	7.8
COc1nc(NCCc2ccc(OC)c(OC)c2)cc(-c2cccc(C(=O)NCCN3CCCC3)c2)n1 [Example 25(b), 3-{6-[2-(3,4-Dimethoxy-phenyl)-ethylamino]-2-methoxy-pyrimidin-4-yl}-N-(2-pyrrolidin-1-yl-ethyl)-benzamide]	30
COc1ccc(CCNc2cc(-c3ccsc3/C=N/O)nc(OC)n2)cc1 [Example 26(d), 3-{2-Methoxy-6-[2-(4-methoxy-phenyl)-ethylamino]-pyrimidin-4-yl}-thiophene-2-carbaldehyde oxime]	0.4
COc1nc(NCCc2c(F)cccc2Cl)cc(-c2cccc(C=O)c2)n1 [Example 35(v), 3-{6-[2-(2-chloro-6-fluoro-phenyl)-ethylamino]-2-methoxy-pyrimidin-4-yl}-benzaldehyde]	3.6
COc1nc(NCCc2ccc(Cl)cc2Cl)cc(-c2cccc(C(C)(C)C(=O)O)c2)n1 [Example 15(d), 2-(3-{6-[2-(2,4-Dichloro-phenyl)-ethylamino]-2-methoxy-pyrimidin-4-yl}-phenyl)-2-methyl-propionic acid hydrochloride]	0.3
COc1ccc(CCNc2cc(-c3nnc(C)o3)nc(OC)n2)cc1 [Example 44, [2-Methoxy-6-(5-methyl-[-1,3,4]oxadiazol-2-yl)-pyrimidin-4-yl]-[2-(4-methoxy-phenyl)-ethyl]-amine]	55
CCOC(=O)C(C)(C)Oc1cccc(-c2cc(NCCc3ccc(OC)cc3)nc(OC)n2)c1 [Example 22(a), 2-(3-{2-Methoxy-6-[2-(4-methoxy-phenyl)-ethylamino]-pyrimidin-4-yl}-phenoxy)-2-methyl-propionic acid ethyl ester]	60
COc1nc(NCCc2c(F)cccc2Cl)cc(-c2cccc(OCc3noc(=O)[nH]3)c2)n1 [Example 34(c), 3-(3-{6-[2-(2-Chloro-6-fluoro-phenyl)-ethylamino]-2-methoxy-pyrimidin-4-yl}-phenoxymethyl)-4H-[1,2,4]oxadiazol-5-one hydrochloride]	0.3
COc1ccc(CCNc2cc(-c3ccc(-c4cnco4)s3)nc(OC)n2)cc1 [Example 11(a), [2-Methoxy-6-(5-oxazol-5-yl-thiophen-2-yl)-pyrimidin-4-yl]-[2-(4-methoxy-phenyl)-ethyl]-amine]	2.3
COc1ccc(CCNc2cc(-c3ccc(C(N)=O)cc3)nc(OC)n2)cc1 [Example 10(e), 4-{2-Methoxy-6-[2-(4-methoxy-phenyl)-ethylamino]-pyrimidin-4-yl}-benzamide]	2.3
COc1ccc(CCNc2cc(-c3ccc(C(C)=O)cc3)nc(OC)n2)cc1 [Example 10(h), 1-(4-{2-Methoxy-6-[2-(4-methoxy-phenyl)-ethylamino]-pyrimidin-4-yl}-phenyl)-ethanone]	6.3
COc1ccc(CCNc2cc(-c3cccnc3)nc(OC)n2)cc1 [Example 35(x), [2-methoxy-(6-pyridin-3-yl)-pyrimidin-4-yl]-[2-(4-methoxy-phenyl)-ethyl]-amine]	10
COc1nc(NCCc2ccc(Cl)cc2Cl)cc(-c2cccc(OCC#N)c2)n1 [Example 22(e), (3-{6-[2-(2,4-Dichloro-phenyl)-ethylamino]-2-methoxy-pyrimidin-4-yl}-phenoxy)-acetonitrile]	0.4
COc1nc(NCCc2c(F)cccc2Cl)cc(-c2ccc(=O)n(Cc3n[nH]c(=O)o3)c2)n1 [Example 33, 5-{6-[2-(2-Chloro-6-fluoro-phenyl)-ethylamino]-2-methoxy-pyrimidin-4-yl}-1-(5-oxo-4,5-dihydro-[1,3,4]oxadiazol-2-ylmethyl)-1H-pyridin-2-one]	1.2
COc1ccc(CCNc2cc(-c3ccccc3O)nc(OC)n2)cc1 [Example 35(r), 2-{2-Methoxy-6-[2-(4-methoxy-phenyl)-ethylamino]-pyrimidin-4-yl}-phenol]	17
CCNC(=O)Oc1cccc(-c2cc(NCCc3ccc(Cl)cc3Cl)nc(OC)n2)c1 [Example 60, Ethyl-carbamic acid 3-{6-[2-(2,4-dichloro-phenyl)-ethylamino]-2-methoxy-pyrimidin-4-yl}-phenyl ester]	0.5
COc1nc(NCCc2ccc(Cl)cc2Cl)cc(-c2cccc(C3(C(=O)O)CCOCC3)c2)n1 [Example 80(a), 4-(3-{6-[2-(2,4-Dichloro-phenyl)-ethylamino]-2-methoxy-pyrimidin-4-yl}-phenyl)-tetrahydro-pyran-4-carboxylic acid]	0.05
COCc1nc(NCCc2ccc(Cl)cc2Cl)cc(-c2cccc(C(C)(C)C(=O)O)c2)n1 [Example 85, 2-(3-{6-[2-(2,4-Dichloro-phenyl)-ethylamino]-2-methoxymethyl-pyrimidin-4-yl}-phenyl)-2-methyl-propionic acid]	2.7
COc1ccc(CCNc2cc(-c3ccc4[nH]cnc4c3)nc(OC)n2)cc1 [Example 14(a), [6-(1H-Benzoimidazol-5-yl)-2-methoxy-pyrimidin-4-yl]-[2-(4-methoxy-phenyl)-ethyl]-amine]	2.7
COc1nc(NCCc2ccc(Cl)cc2Cl)cc(-c2ccc3nc(NC(C)=O)sc3c2)n1 [Example 94, N-(6-{6-[2-(2,4-Dichloro-phenyl)-ethylamino]-2-methoxy-pyrimidin-4-yl}-benzothiazol-2-yl)-acetamide]	11
COc1ccc(CCNc2cc(-c3ccc4ncccc4c3)nc(OC)n2)cc1 [Example 10(a), [2-(4-Methoxy-phenyl)-ethyl]-(2-methoxy-6-quinolin-6-yl-pyrimidin-4-yl)-amine]	0.6
COc1ccc(CCNc2cc(-c3cccc(Cc4nnn[nH]4)c3)nc(OC)n2)cc1 [Example 24(b), [2-(4-Methoxy-phenyl)-ethyl]-{2-methoxy-6-[3-(1H-tetrazol-5-ylmethyl)-phenyl]-pyrimidin-4-yl}-amine hydrochloride]	0.1
CCNS(=O)(=O)c1cccc(-c2cc(NCCc3ccc(OC)cc3)nc(OC)n2)c1 [Example 4(b), N-Ethyl-3-{2-methoxy-6-[2-(4-methoxy-phenyl)-ethylamino]-pyrimidin-4-yl}-benzenesulfonamide]	6.6
COc1ccc(CCNc2cc(-c3cccc(-c4cc(C)no4)c3)nc(OC)n2)cc1 [Example 38, {2-Methoxy-6-[3-(3-methyl-isoxazol-5-yl)-phenyl]-pyrimidin-4-yl}-[2-(4-methoxy-phenyl)-ethyl]-amine]	6
COc1nc(NC2CCc3ccccc32)cc(-c2cccc(C(C)(C)C(=O)O)c2)n1 (stereo not shown) [Example 83(a), 2-{3-[6-(Indan-1-ylamino)-2-methoxy-pyrimidin-4-yl]-phenyl}-2-methyl-propionic acid]	83
COc1ccc(CCNc2cc(-c3ccc[n+]([O-])c3)nc(OC)n2)cc1 [Example 21(a), [2-Methoxy-6-(1-oxy-pyridin-3-yl)-pyrimidin-4-yl]-[2-(4-methoxy-phenyl)-ethyl]-amine]	149
